{"source": "patent US10233165B2", "about": "“Cyclopropylamine compounds as histone demethylase inhibitors” (IEO—Instituto Europeo di Oncologia S.r.l., priority 2014, dated 2019)", "key": {"[1]": {"tested_on": "CD14 mRNA in THP-1 cells", "test": "THP-1 target modulation, CD14 mRNA by quantitative RT-PCR", "format": "cell-based, human", "details": "0.1 μM inhibitor, 5 days, normalized against TBP mRNA", "description": "(§1) For this scope THP-1 cells (ACC 16: DSMZ Leibniz Institute DSMZ German collection of Microorganism and cell culture) were plated at cellular density of 50.000 cells/mL and were incubated with the inhibitor at a fixed concentration of 0.1 μM for 5 days. Then, the cells were recovered and mRNA extracted to follow mRNA levels of the macrophage-specific genes CD14. mRNA expression was measured by quantitative RT-PCR (Fast SYBR Green Master mix, Applied Biosystems Foster City, Calif.) using specific primers and normalized against TBP mRNA. […] Primers used in this study were: […]"}, "[2]": {"tested_on": "CD14 mRNA in THP-1 cells", "test": "THP-1 methylcellulose assay, CD14 mRNA in harvested cells", "format": "cell-based, human", "details": "THP-1 cells harvested from methylcellulose, 500 nM inhibitor, 13 days", "description": "as §1\n(§2) THP-1 cells were plated at a density of 250 cells per plate and cultured with the inhibitors at a fixed dose of 500 nM in MethoCult™ H4435 Enriched medium (StemCell Technologies, Vancouver, BC) for 13 days according to the manufacturer instructions. Then, the colony forming potential was scored by direct visualization using an inverted microscope and the percentage of inhibition over the vehicle was assessed. In addition, the cells were harvested and compounds-induced maturation was monitored by changes in the mRNA levels of macrophage-specific genes (CD14) as reported above."}, "[3]": {"tested_on": "human THP-1 cells", "test": "THP-1 methylcellulose assay, colony formation", "format": "cell-based", "details": "500 nM inhibitor, 13 days, versus vehicle; for inhibition at 0.5 µM: Homo sapiens, THP-1, 312 h", "description": "The KDM1A inhibitors were tested for their anti-clonogenic potential on human THP-1 cells (ACC 16: DSMZ Leibniz Institute DSMZ German collection of Microorganism and cell culture).\nas §2"}, "[4]": {"tested_on": "Human leukemia MV4-11 cells", "test": "Cell growth, CellTiter-Fluor viability assay", "format": "cell-based", "details": "48 h incubation, read-out: IC50 [μM] cell growth inhibitory assay", "from_the_text": "CellTiter-Flor® (Promega) is a nonlytic, single-reagent-addition fluorescence assay that measures the relative number of living cells in a culture population after experimental manipulation. The CellTiter-Fluor™ Cell Viability Assay measures the conserved and constitutive protease activity within live cells and therefore acts as a marker for cell viability.\nHuman leukemia MV4-11 cells, (obtained from the Deutsche Sammlung von Mikroorganismen and Zellkulturen, ACC 102) in exponential growth, were incubated for 48 h with different concentrations of the inhibitors (e.g. from 0 to 100 μM). After 48 h a volume of CellTiterFluor® Reagent equal to the volume of cell culture medium was added. The content was mixed and incubates for at least 90 min at 37° C. degree to obtain a stable signal. The fluorescence was recorded using an excitation wavelength of 360 nm and an emission at 535 nm. The IC50 was calculated using GraphPad Software."}, "[5]": {"target": "T1, Human recombinant MAO A (Homo sapiens, UniProt P21397)", "T1 construct": "made in house; host or cells: Pichia pastoris", "T1 sequence (P21397 1-527)": "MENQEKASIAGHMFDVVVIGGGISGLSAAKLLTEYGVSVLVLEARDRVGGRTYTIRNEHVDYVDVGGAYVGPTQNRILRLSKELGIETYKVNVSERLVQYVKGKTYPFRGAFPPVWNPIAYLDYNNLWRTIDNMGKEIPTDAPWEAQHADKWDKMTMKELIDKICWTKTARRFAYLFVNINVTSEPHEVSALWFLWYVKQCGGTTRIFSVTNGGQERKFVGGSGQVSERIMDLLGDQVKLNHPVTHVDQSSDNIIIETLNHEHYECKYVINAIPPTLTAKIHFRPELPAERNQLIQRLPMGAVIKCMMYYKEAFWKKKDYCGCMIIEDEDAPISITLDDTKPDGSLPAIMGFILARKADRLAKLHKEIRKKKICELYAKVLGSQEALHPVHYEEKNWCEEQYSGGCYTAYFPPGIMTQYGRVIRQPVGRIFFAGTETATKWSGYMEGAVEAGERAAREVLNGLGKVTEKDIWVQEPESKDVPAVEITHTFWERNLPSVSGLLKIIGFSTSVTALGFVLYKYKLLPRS", "test": "Bioluminescent-coupled assay for monoamine oxidases (MAO-Glo), MAO-A", "format": "biochemical", "details": "for IC50 (MAO-A)/ IC50 (LSD1): ratio, 15 min preincubation of compound with enzyme", "description": "The MAO-Glo Assay from Promega (cat. V1402, Promega, Madison, Wis.) was used to measure the effect of inhibitors on MAO-A and MAO-B activity.\nHuman recombinant MAO A and MAO B were expressed in Pichia pastoris and purified as published (Binda C. et al. Proc. Natl. Acad. Sci. USA, 2003, 9750-9755). The assay was performed at RT in 50 μL (25 μL reaction solution+25 μL detection reagent) in 96 well half area white plates (cat. 3693, Corning, Corning, N.Y.). Luminescence was measured after 20 min incubation in the dark using a microplate reader (Infinite F200, Tecan Group, Switzerland) with an integration time of 0.25 s per well.\n50 nM MAO-A or 125 nM MAO-B were incubated with five different inhibitor concentrations (from 0.004 μM to 100 μM) for 15 min at RT in Promega MAO Buffer or Promega MAO-B Buffer (MAO-Glo Assay kit, catalogue number V1402, Promega, Madison, Wis.). […] After 30 min of incubation the reaction was stopped with the Promega detection reagent. The experiments were carried out in duplicate. IC50 was calculated using GraphPad Prism version 4.0 (GraphPad Software, San Diego, Calif.)."}, "[6]": {"target": "T2, human recombinant KDM1A (LSD1)/CoRest complex (Homo sapiens, UniProt O60341)", "T2 construct": "made in house; host or cells: E. coli", "test": "Assay of enzyme inhibition of KDM1A (LSD1), Amplex UltraRed/peroxidase", "format": "biochemical", "details": "result in words", "description": "The complex of human recombinant KDM1A (LSD1)/CoRest protein was produced in E. coli as separate proteins and co-purified following previously reported procedures (Forneris F. et al. Trends Biochem. Sci. 2008, 33, 181-189; Forneris F. et al. J. Biol. Chem. 2007, 282, 20070-20074). The experiments were performed using a mono-methylated H3-K4 peptide containing 21 amino acids (custom synthesis done by Thermo Scientific) as substrate and in 50 mM TRIS, pH 8.0 and 0.05 mg/ml BSA. The peptide purity was >90% as checked by analytical high-pressure liquid chromatography and mass spectrometry.\nThe demethylase activity was estimated under aerobic conditions and at RT by measuring the release of H2O2 produced during the catalytic process by the Amplex® UltraRed detection system coupled with peroxidase assay. […] The conversion of the Amplex® Ultra Red reagent to resorufin was monitored in continuous by fluorescence (excitation at 540 nm, emission at 590 nm) using a microplate reader (Infinite 200, Tecan). […] The maximum demethylase activity of KDM1A/CoRest was obtained in the absence of inhibitors and corrected for background fluorescence in the absence of KDM1A/CoRest. The IC50 was calculated using GraphPad Software."}}, "note": "Counter-ions that a name gives are not always drawn. Like-named read-outs stand apart in the source and are kept apart here."}
{"smiles": "N[C@@H]1C[C@H]1c1ccc(NC(=O)c2cccc(N3CCOC3=O)c2)cc1", "note": "(relative stereo) [Example 3, N-[4-[trans-2-aminocyclopropyl]phenyl]-3-(2-oxooxazolidin-3-yl)benzamide hydrochloride]", "values": [{"measurement": "Target modulation CD14 mRNA expression (fold increase versus vehicle)", "setting": "[1]; hydrochloride", "result": "21.2 fold increase versus vehicle"}, {"measurement": "Colony formation Target Modulation CD14 mRNA expression (Fold increase)", "setting": "[2]; hydrochloride", "result": 24.8, "unit": "Fold increase"}, {"measurement": "inhibition at 0.5 µM", "setting": "[3]", "result": 41, "unit": "%"}, {"measurement": "IC50", "setting": "[4]; Homo sapiens", "result": "≤ 5", "unit": "µM"}, {"measurement": "IC50 (MAO-A)/ IC50 (LSD1)", "setting": "[5]; hydrochloride", "result": 3.30}]}
{"smiles": "N[C@@H]1C[C@H]1c1ccc(NC(=O)c2ccc(N3CCOCC3)cc2)cc1", "note": "(relative stereo) [Example 4, N-[4-[trans-2-aminocyclopropyl]phenyl]-4-morpholino-benzamide Hydrochloride]", "values": [{"measurement": "IC50", "setting": "[4]; Homo sapiens", "result": "5 to 50", "unit": "µM"}]}
{"smiles": "N[C@@H]1C[C@H]1c1ccc(NC(=O)c2ccc(N3CCOC3=O)cc2)cc1", "note": "(relative stereo) [Example 5, N-[4-[trans-2-aminocyclopropyl]phenyl]-4-(2-oxooxazolidin-3-yl)benzamide Hydrochloride]", "values": [{"measurement": "IC50", "setting": "[4]; Homo sapiens", "result": "5 to 50", "unit": "µM"}]}
{"smiles": "N[C@@H]1C[C@H]1c1ccc(NC(=O)c2ccccc2)cc1", "note": "(relative stereo) [Example 5b, N-[4-[trans-2-aminocyclopropyl]phenyl]benzamide, reference compound]", "values": [{"measurement": "IC50", "setting": "[4]; Homo sapiens", "result": "50 to 100", "unit": "µM"}, {"measurement": "IC50 (MAO-A)/ IC50 (LSD1)", "setting": "[5]", "result": 1.56}]}
{"smiles": "N[C@@H]1C[C@H]1c1ccc(NC(=O)c2ccc(-c3ccccc3)cc2)cc1", "note": "(relative stereo) [Example 5e, N-[4-[trans-2-aminocyclopropyl]phenyl]-4-phenyl-benzamide, reference compound]", "values": [{"measurement": "Target modulation CD14 mRNA expression (fold increase versus vehicle)", "setting": "[1]", "result": "2.2 fold increase versus vehicle"}, {"measurement": "IC50", "setting": "[4]; Homo sapiens", "result": "≤ 5", "unit": "µM"}, {"measurement": "activity on KDM1A (LSD1)", "setting": "[6]", "result": "inactive"}, {"measurement": "IC50", "setting": "[5]; 50 nM MAO-A, 15 min preincubation, read-out: MAO-A inhibition IC50", "result": 0.054, "unit": "µM"}]}
{"smiles": "CN1CCN(c2cc(C(=O)Nc3ccc([C@@H]4C[C@H]4N)cc3)ccc2NC(=O)OCc2ccccc2)CC1", "note": "(relative stereo) [Example 6, Benzyl N-[4-[[4-[trans-2-aminocyclopropyl]phenyl]carbamoyl]-2-(4-methylpiperazin-1-yl)phenyl]carbamate Dihydrochloride]", "values": [{"measurement": "Target modulation CD14 mRNA expression (fold increase versus vehicle)", "setting": "[1]", "result": "13 fold increase versus vehicle"}, {"measurement": "IC50", "setting": "[4]; Homo sapiens", "result": "≤ 5", "unit": "µM"}, {"measurement": "IC50 (MAO-A)/ IC50 (LSD1)", "setting": "[5]", "result": 15.3}]}
{"smiles": "CN1CCN(c2ccc(C(=O)Nc3ccc([C@@H]4C[C@H]4N)cc3)cc2NC(=O)OCc2ccccc2)CC1", "note": "(relative stereo) [Example 7, Benzyl N-[5-[[4-[(trans-2-aminocyclopropyl]phenyl]carbamoyl]-2-(4-methylpiperazin-1-yl)phenyl]carbamate Dihydrochloride]", "values": [{"measurement": "IC50", "setting": "[4]; Homo sapiens", "result": "≤ 5", "unit": "µM"}, {"measurement": "IC50 (MAO-A)/ IC50 (LSD1)", "setting": "[5]", "result": 11.2}]}
{"smiles": "N[C@@H]1C[C@H]1c1ccc(NC(=O)c2ccc(N3CCCCC3)c(NC(=O)OCc3ccccc3)c2)cc1", "note": "(relative stereo) [Example 8, Benzyl N-[5-[[4-[trans-2-aminocyclopropyl]phenyl]carbamoyl]-2-(1-piperidyl)phenyl]carbamate Hydrochloride]", "values": [{"measurement": "IC50", "setting": "[4]; Homo sapiens", "result": "≤ 5", "unit": "µM"}]}
{"smiles": "N[C@@H]1C[C@H]1c1ccc(NC(=O)c2ccc(N3CCOCC3)c(NC(=O)OCc3ccccc3)c2)cc1", "note": "(relative stereo) [Example 9, Benzyl N-[5-[[4-[trans-2-aminocyclopropyl]phenyl]carbamoyl]-2-morpholino-phenyl]carbamate hydrochloride]", "values": [{"measurement": "IC50", "setting": "[4]; Homo sapiens", "result": "≤ 5", "unit": "µM"}, {"measurement": "IC50 (MAO-A)/ IC50 (LSD1)", "setting": "[5]", "result": 3.17}]}
{"smiles": "N[C@@H]1C[C@H]1c1ccc(NC(=O)c2cccc(N3CCOC3=O)c2)cc1", "note": "[Example 11, N-[4-[(1S,2R)-2-aminocyclopropyl]phenyl]-3-(2-oxooxazolidin-3-yl)benzamide Hydrochloride]", "values": [{"measurement": "Target modulation CD14 mRNA expression (fold increase versus vehicle)", "setting": "[1]; hydrochloride", "result": "15.1 fold increase versus vehicle"}, {"measurement": "Colony formation Target Modulation CD14 mRNA expression (Fold increase)", "setting": "[2]; hydrochloride", "result": 27.7, "unit": "Fold increase"}, {"measurement": "Colony formation % of Inhibition", "setting": "[3]; Hydrochloride, 0.5 µM", "result": 36.3, "unit": "%"}, {"measurement": "IC50", "setting": "[4]", "result": "≤ 5", "unit": "µM"}, {"measurement": "IC50 (MAO-A)/ IC50 (LSD1)", "setting": "[5]; hydrochloride", "result": 5.93}]}
{"smiles": "N[C@H]1C[C@@H]1c1ccc(NC(=O)c2cccc(N3CCOC3=O)c2)cc1", "note": "[Example 13, N-[4-[(1R,2S)-2-aminocyclopropyl]phenyl]-3-(2-oxooxazolidin-3-yl)benzamide Hydrochloride]", "values": [{"measurement": "Target modulation CD14 mRNA expression (fold increase versus vehicle)", "setting": "[1]", "result": "3.1 fold increase versus vehicle"}, {"measurement": "Colony formation Target Modulation CD14 mRNA expression (Fold increase)", "setting": "[2]", "result": 6, "unit": "Fold increase"}, {"measurement": "inhibition at 0.5 µM", "setting": "[3]", "result": 19, "unit": "%"}, {"measurement": "IC50", "setting": "[4]; Homo sapiens", "result": "≤ 5", "unit": "µM"}, {"measurement": "IC50 (MAO-A)/ IC50 (LSD1)", "setting": "[5]", "result": 2.67}]}
